Experimental data reported in patent publication US12545896B2, “Growth inhibitor” (Orizuru Therapeutics, Inc., priority 2019, dated 2026).

Experiments:
[1] = tested on: insulin-producing cell population obtained by the differentiation from iPS cells (CHGA-negative cells; insulin-positive and NKX6.1-positive cells); experiment: Flow cytometry of insulin-producing cell population treated with PLK inhibitor for last 4 days of differentiation (Example 1); assay type: cell-based; details: 3 μM; for Proportion of CHGA-negative and Ki67-negative cells / Proportion of CHGA-negative and Ki67-positive cells / Proportion of insulin-positive and NKX6.1-positive cells: 4 days treatment, flow cytometry
Source text: The number of CHGA-negative (and Ki67-positive or Ki67-negative) cells in the cell population obtained by each of the above methods 1) and 2) was counted by flow cytometry to determine the proportion of unintended cells, that is, a CHGA-negative (and Ki67-positive or Ki67-negative) rate, in each cell population.
The number of insulin-positive and NKX6.1-positive cells in the cell population obtained by each of the above methods 1) and 2) was counted by flow cytometry to determine the proportion of the cells of interest, that is, insulin-positive and NKX6.1-positive cells, in each method.

[2] = tested on: insulin-producing cell population obtained by the differentiation from iPS cells (CHGA-negative cells; insulin-positive and NKX6.1-positive cells); experiment: Insulin-producing cell population treated with PLK inhibitor for 7 days in 30 mL reactor for culture (Example 2); assay type: cell-based; details: 3 μM, 7 days treatment
Procedure: Specifically, the endocrine progenitor cell population obtained by the differentiation from iPS cells was cultured for 4 days in a medium for induction of differentiation in a 30 mL reactor for culture and thereby differentiated into an insulin-producing cell population.
For a control, the endocrine progenitor cell population obtained by the differentiation from iPS cells was cultured for 11 days in a medium for induction of differentiation in a 30 mL reactor for culture and thereby differentiated into an insulin-producing cell population.

[3] = last 4 days of differentiation into insulin-producing cells

COc1ccc2c(c1)[C@@]1(C[C@@H]1c1ccc3c(/C=C/c4ccc(CN5C[C@@H](C)O[C@@H](C)C5)cc4)n[nH]c3c1)C(=O)N2 [CAS1338800-06-8, (1S,2R)-2-[3-[(1E)-2-[4-[[(2R,6S)-2,6-dimethyl-4-morpholinyl]methyl]phenyl]ethenyl]-1H-indazol-6-yl]-5′-methoxy-spiro[cyclopropane-1,3′-[^3H]indol]-2′(1′H)-one]
Proportion of CHGA-negative and Ki67-negative cells ([1]; first experiment): 11.4%
Proportion of CHGA-negative and Ki67-positive cells ([1]; first experiment): 0.8%
Proportion of insulin-positive and NKX6.1-positive cells ([1]; first experiment): 22.4%
Proportion of CHGA-negative and Ki67-negative cells ([1]; second experiment): 12.4%
Proportion of CHGA-negative and Ki67-positive cells ([1]; second experiment): 0.2%
Proportion of insulin-positive and NKX6.1-positive cells ([1]; second experiment): 23.0%
Proportion of CHGA-negative cells (both Ki67-positive and Ki67-negative) as compared with a control [1, 3]: markedly decreased
Proportion of the cells of interest (insulin-positive and NKX6.1-positive cells) as compared with a control [1, 3]: markedly increased
Proportion of CHGA-negative cells (both Ki67-positive and Ki67-negative) as compared with a control [2]: markedly decreased
Proportion of insulin-positive (and NKX6.1-positive) cells as compared with a control [2]: markedly increased
